Data on one molecule can be found in patent publication US20170143712A1, “Methods of Treating Cancers, Immune and Autoimmune Diseases, and Inflammatory Diseases Based on BTK Occupancy and BTK Resynthesis Rate” (Acerta Pharma B.V., priority 2014, published 2017).

Where two headings read alike, the source gives them in different places.

Data set [1] deals with T1, BTK (Homo sapiens, UniProt Q06187). In words: BTK occupancy in PBMCs / peripheral blood B lymphocytes of healthy volunteers (active-site probe ELISA). It counts as in vivo. Conditions: for receptor occupancy at 15 mg: human. On the procedure:
The presence of inactivated BTK in peripheral blood B lymphocytes was measured using a BTK active-site specific probe in an ELISA assay and expressed as a percentage of pre-study levels.
A Phase 1, single-center, open-label, single-treatment study in healthy volunteers was conducted to assess the BTK occupancy of Formula (II) after multiple-dose administration in healthy adult subjects under fasting conditions. The study primarily focused on characterizing the pharmacodynamics (PD) of Formula (II) by assessing the BTK occupancy profile of Formula (II) in peripheral blood mononuclear cells (PBMCs) and by measuring the expression of lymphocyte B activation markers, CD69 and CD86, during and after multiple oral dose administration of 15 mg daily in healthy subjects. As a secondary objective, the study evaluated the pharmacokinetic (PK) profile, safety, and tolerability after multiple-dose administrations of Formula (II) in the healthy subjects. Moreover, the study determined the effects of Formula (II) on peripheral blood T cells and myeloid-derived suppressor cells (MDSCs).
Forty, healthy adult, non-tobacco using men and women were enrolled in the study. A 15 mg Formula (II) dose (1×15 mg capsule) was administered once daily (QD) to each subject for 7 consecutive days (Days 1 to 7) with a washout period (6 days). PD blood samples were collected from each subject before dosing on Day 1, throughout the study, and up to 144 hours after dosing on Day 7 to characterize Formula (II) PD effects. PK sampling for Formula (II) was also collected before dosing on Day 1, throughout the study, and for 24 hours after dosing on Day 7. Additionally, potential Formula (II) safety issues were monitored through physical examination, vital sign measurements, 12 lead electrocardiograms (ECGs), AEs and clinical laboratory tests.
The occupancy of BTK by Formula (II) was measured in PBMCs with the aid of a biotin tagged Formula (II) analogue probe. The effect of Formula (II) on functional activation of B cells following BCR stimulation (measured via the phorphorylation of BTK and upregulation of CD69 and CD86 activation markers) was also evaluated.
(An ELISA detects its analyte on a solid surface through an enzyme-linked reagent.)

Data set [2] has as its target T1, BTK. Nature of the data set: PK/PD model fit and simulation of BTK occupancy and pBTK inhibition. The following applies: for BTK resynthesis rate (modeled estimate): 15 mg QD.
Data set [3] addresses T1, BTK. In words: BTK target occupancy in CD5+/CD19+ tumor cells of relapsed/refractory CLL patients. It counts as in vivo. On the procedure: Peripheral blood samples were obtained over time and BTK target occupancy was evaluated using a BTK active-site specific probe in an ELISA assay.
In data set [4] the target is T1, BTK. In words: Per cell BTK protein level in CD19+/CD5+ CLL tumor cells (flow cytometry). The class given is in vivo. Conditions: 100 mg BID, after 4 weeks of treatment. The protocol: Peripheral blood samples were obtained and BTK protein levels were evaluated in CD19+/CD5+ tumor cells by flow cytometry.
In general terms: Flow cytometry measures light scatter and fluorescence of single cells or particles in a stream.

Data set [5] deals with anti-KLH IgM and IgG antibody response. Nature of the data set: T cell dependent antibody response (TDAR) to KLH in rats. The class given is in vivo, rat. Conditions: 1, 2.5 and 5 mg/kg/day oral gavage, KLH on Day 50. The protocol: Rats were treated with oral gavage administration of vehicle or Formula (II) at doses of 1, 2.5 and 5 mg/kg/day for 91 days. Sixteen rats per gender were evaluated for development of T cell dependent antibody response (TDAR), with primary immunization on Day 50 with keyhole limpet hemocyanin (KLH) by subcutaneous injection. Dosing continued and on Days 57, 64, and 71, blood samples were collected via the sublingual vein into tubes without anticoagulant and allowed to clot at room temperature for at least 30 minutes, then the serum was divided into 4 approximately equal aliquots and stored frozen at approximately −60 to −90° C. Anti-KLH IgM and IgG antibody levels were determined using an enzyme-linked immunosorbent assay (ELISA). FIG. 41A, FIG. 41B, FIG. 41C, FIG. 41D, FIG. 41E, FIG. 41F, FIG. 42A, FIG. 42B, FIG. 42C, FIG. 42D, FIG. 42E, and FIG. 42F illustrate the trends in anti-KLH antibody responses among male and female rats.

Data set [6] relates to psoriasis. Nature of the data set: Clinical observation of psoriasis in CLL/SLL study subjects. The class given is in vivo, human. The text has this: Clinical studies have shown that targeting the BCR signaling pathway by inhibiting BTK produces significant clinical benefit in patients with various types of leukemias and lymphomas. Formula (II) achieves significant oral bioavailability and potency, and has favorable preclinical characteristics, as described above. The purpose of this study is to evaluate the safety and efficacy of the second generation BTK inhibitor of Formula (II) in treating subjects with chronic lymphocytic leukemia (CLL) and small lymphocytic lymphoma (SLL). The primary objectives of the clinical study are as follows: […] The secondary objective of the clinical study is to evaluate tumor responses in patients treated with Formula (II). In addition, effects of Formula (II) on other patient characteristics, such as dermatoses, were evaluated for particular patients enrolled in the study. This study is a multicenter, open-label, nonrandomized, sequential group, dose escalation study. The following dose cohorts are evaluated: The study scheme is a sequential cohort escalation. Each cohort consists of six subjects. The sample size of the study is 24 to 36 subjects, depending on dose escalation into subsequent cohorts. Cohort 1 (N=6) consists of Formula (II), 100 mg QD for 28 days. Cohort 2 (N=6) consists of Formula (II), 175 mg QD for 28 days. Cohort 3 (N=6) consists of Formula (II), 250 mg QD for 28 days. Cohort 4 (N=6) consists of Formula (II), 350 mg QD for 28 days. Cohort 5 (N=6) consists of Formula (II), 450 mg QD for 28 days. Cohort 6 (N=6) consists of Formula (II), at a dose to be determined QD for 28 days. The dose level for Cohort 6 will be determined based on the safety and efficacy of Cohorts 1 to 5, and will not exceed 900 mg/day. […] Treatment with oral Formula (II) may be continued for greater than 28 days until disease progression or an unacceptable drug-related toxicity occurs. The dosage form and strength of Formula (II) used in the clinical study is a hard gelatin capsules prepared using standard pharmaceutical grade excipients (microcrystalline cellulose) and containing 25 mg of Formula (II) each. The color of the capsules is Swedish orange. The route of administration is oral (per os, or PO). […] They were treated over time with several systemic therapies including etanercept, adalimumab, and a 2010 clinical study of an experimental agent. They initially responded to etanerceptbut continued to have flares, and was under the care of a dermatologist prior to enrolling in the clinical study. Their treatment history included topical medications, and recently included Taclonex (calcipotriene/betamethasone diproprionate), without much improvement in skin lesions.

T1 sequence (Q06187 whole entry): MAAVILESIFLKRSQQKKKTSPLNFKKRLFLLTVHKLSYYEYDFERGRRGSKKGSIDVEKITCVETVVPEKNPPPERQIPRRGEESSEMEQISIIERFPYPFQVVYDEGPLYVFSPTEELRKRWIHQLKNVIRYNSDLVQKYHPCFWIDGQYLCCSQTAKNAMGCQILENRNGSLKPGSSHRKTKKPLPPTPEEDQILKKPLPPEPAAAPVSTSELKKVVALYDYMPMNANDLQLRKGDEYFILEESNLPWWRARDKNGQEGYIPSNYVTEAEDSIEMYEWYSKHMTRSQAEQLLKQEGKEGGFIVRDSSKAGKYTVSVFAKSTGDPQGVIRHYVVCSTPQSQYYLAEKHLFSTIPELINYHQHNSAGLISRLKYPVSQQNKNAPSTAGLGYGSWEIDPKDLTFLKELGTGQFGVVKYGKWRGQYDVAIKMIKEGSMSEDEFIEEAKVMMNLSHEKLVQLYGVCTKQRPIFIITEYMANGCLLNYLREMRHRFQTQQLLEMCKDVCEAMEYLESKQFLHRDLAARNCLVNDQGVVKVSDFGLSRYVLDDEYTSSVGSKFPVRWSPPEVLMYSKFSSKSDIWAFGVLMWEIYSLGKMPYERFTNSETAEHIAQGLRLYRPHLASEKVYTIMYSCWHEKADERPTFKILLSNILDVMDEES

Consider `CC#CC(=O)N1CCC[C@H]1c1nc(-c2ccc(C(=O)Nc3ccccn3)cc2)c2c(N)nccn12` [Formula (II), (S)-4-(8-amino-3-(1-(but-2-ynoyl)pyrrolidin-2-yl)imidazo[1,5-a]pyrazin-1-yl)-N-(pyridin-2-yl)benzamide], for which the “estimated half-life of occupied BTK (BTK resynthesis t1/2)” value in data set [1] (15 mg QD, Days 1 and 2, initial post-dose rate) was 20 h; in data set [1] (after discontinuation of 15 mg QD x 7 days at steady state, later rate) it was 119 h. Further, the “modeled rate of BTK resynthesis (t1/2)” value in data set [1] (after 7 days dosing with 15 mg, and after a 25 mg BID dose) is recorded as 119 h; in data set [1] (early doses of 15 mg QD, or a single 25 mg QD dose) it was 20 h. Besides, the receptor occupancy at 15 mg in data set [1] (15 mg QD for 7 days, read-out: peak BTK occupancy at steady state) is greater than 90%; in data set [1] (15 mg QD, Days 1 and 2, read-out: BTK target occupancy at the end of the dosing interval), roughly 60%. The “k4,1 (model rate constant)” value in data set [2] (15 mg QD model fit) is on record as 0.91. Also, the “BTK resynthesis rate (modeled estimate)” value in data set [2] (after the first 48 hours) is on record as 0.04; in data set [2] (first 48 hours), 0.1. Besides, the “percentage BTK occupancy” value in data set [3] (100 mg BID compared with any QD dosing schedule) is given as “higher percentage BTK occupancy”. Also, the “resynthesis of BTK in CLL tumor cells” value in data set [3] (100 mg QD compared with 100 mg BID) is “more rapid than after 100 mg BID dosing”. For the same molecule, the “BTK occupancy in peripheral blood compartment” value in data set [3] (3-4 hours post dose, all treated subjects) is listed as “full BTK occupancy”. Besides, in data set [3] (total daily doses above 200 mg, once-daily or twice-daily), the “BTK target occupancy in circulating tumor cells throughout the dosing interval” value is greater than 90%. Moreover, the “decrease in BTK protein expression per cell (median, of pre-dose values)” value in data set [4] amounted to 26%. The “anti-KLH IgM and IgG production” value in data set [5] is “significant pharmacological effects on the magnitude of IgM and IgG production”. The “Psoriasis Area and Severity Index achieved (PASI90)” value in data set [6] (Subject 1, CLL patient with severe psoriasis, 10 month visit) came to 90%. Further, the “serum IL-6, MIP-1α, MCP-1β, TNFA, TARC, CXCLS, CD40L, TRAIL, EGF, CXCL1 relative to baseline” value in data set [6] (Subject 1, Day 28 of treatment) is “decreased”. Moreover, in data set [6] (Subject 1, by Cycle 10 (10 months on treatment)), the psoriatic skin disease entry is listed as “their skin was clear”. Further, the moderate-to-severe plaque psoriasis result in data set [6] (Subject 2, after initiation of treatment) is recorded as “cleared quickly”.
